# Measurements from PubChem BioAssay (NCI).
#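 1) Cells in 96-well plates. 2) Compound, 48 h, 5 concentrations. 3) Linear interpolation between surrounding doses. 4) Unreached endpoint = highest concentration. GI50 is the concentration that inhibits growth by half. TGI is the concentration that stops growth completely.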
# Tests used:
# Assay in all cases: growth of human tumour cells (NCI), 48 h
# SW-620 colon = test system: SW-620 colon
# HCC-2998 colon = test system: HCC-2998 colon
# A498 renal = test system: A498 renal
# HCT-15 colon = test system: HCT-15 colon
# KM12 colon = test system: KM12 colon
# SF-539 CNS = test system: SF-539 CNS
# RXF 393 renal = test system: RXF 393 renal
# HT29 colon = test system: HT29 colon
# MDA-MB-435 = test system: MDA-MB-435
# SR leukemia = test system: SR leukemia
SMILES,TGI (SW-620 colon) [µM],TGI (HCC-2998 colon) [µM],TGI (A498 renal) [µM],TGI (HCT-15 colon) [µM],TGI (KM12 colon) [µM],TGI (SF-539 CNS) [µM],TGI (RXF 393 renal) [µM],TGI (HT29 colon) [µM],TGI (MDA-MB-435) [µM],TGI (SR leukemia) [µM],GI50 (MDA-MB-435) [µM],GI50 (SW-620 colon) [µM],GI50 (SR leukemia) [µM],GI50 (HCC-2998 colon) [µM],GI50 (HCT-15 colon) [µM],GI50 (KM12 colon) [µM],GI50 (SF-539 CNS) [µM],GI50 (RXF 393 renal) [µM],GI50 (HT29 colon) [µM],GI50 (A498 renal) [µM]
O=S1c2ccccc2N=C(c2cccs2)CC1c1ccccc1O (stereo not given),> 100,> 100,99.8,> 100,> 100,> 100,> 100,> 100,,,,,,,,,,,,
O=C(Nc1ccn(C2CCC(COC(c3ccccc3)(c3ccccc3)c3ccccc3)O2)c(=O)n1)c1ccccc1 (stereo not given),15.2,29.2,,11.2,14.6,7,11.1,6.09,10.6,4.82,,,,,,,,,,
CC#CC#C/C=C1/C=CC2(CCCCO2)O1 (stereo not given),> 100,> 100,> 100,> 100,> 100,> 100,,> 100,> 100,> 100,,,,,,,,,,
NC1=NN(c2ccccc2)C(=O)C1/C(=N\NC(=O)c1cc2ccccc2cc1O)C(=O)Nc1ccc(Cl)c(Cl)c1 (stereo not given),> 100,> 100,> 100,> 100,> 100,> 100,> 100,> 100,,5.71,,,,,,,,,,
COC(=O)/C(=C1\OC(=O)C(c2ccc(Cl)cc2)=C1O)c1ccc(Cl)cc1,> 100,86.5,47.8,,67.8,67.7,63,> 100,,80.9,,,,,,,,,,
O=C1/C(=C/c2ccc(C(=O)O)cc2)CNC/C1=C\c1ccc(C(=O)O)cc1,,> 100,> 100,> 100,> 100,> 100,> 100,> 100,,> 100,,,,,,,,,,
CC(=O)OCc1cc[c]([Hg][Cl])o1,3.82,29.2,,3.66,42.2,21.2,17.4,26.3,15.5,12.3,3.54,1.6,0.619,15.4,1.62,16.8,4.97,5.12,5.61,
Cc1ccccc1N=C(c1ccccc1)C1C(=O)c2ccccc2C1=O,> 100,54.2,> 100,73,30.8,> 100,> 100,> 100,14.8,,3.44,25.3,,19.2,11.3,10.7,12.1,7.37,13.7,24.4
C/C(COc1ccccc1)=N\NC(N)=S,> 100,> 100,> 100,> 100,> 100,> 100,> 100,> 100,,> 100,,,,,,,,,,
O=C(C#Cc1ccccc1)N1CCCCC1,> 100,> 100,> 100,> 100,> 100,> 100,,> 100,> 100,> 100,,,,,,,,,,
O=Cc1cc2sc(C=O)cc2s1,> 100,> 100,34.3,> 100,> 100,> 100,> 100,> 100,,> 100,,,,,,,,,,
CCCCCCCN(CCCCCCC)C(=N)c1ccc(OC)c2ccccc12,2.24,,1.8,,,,3.01,,2.89,,1.48,0.825,,,,,,1.3,,0.419
O=C(Nc1ccc(-c2cn3ccccc3n2)cc1)c1cc(Br)ccc1O,> 100,,> 100,> 100,> 100,> 100,> 100,> 100,> 100,> 100,,,,,,,,,,
OCC1OC(n2cnc3cc(Cl)c(Cl)cc32)C(O)C1O (stereo not given),> 76.7,27,> 67.7,37.5,> 100,44.7,,> 100,82.6,,24,30.3,0.648,12.7,14.8,28.3,19.9,,33.6,> 47.3
C=C1[C@H](O)C[C@@H](C(C)C(O)CC=C(C)C)[C@@H](O)[C@@H]2C(C)=CC[C@@H]12 (stereo not given in full),> 100,,,> 100,> 100,> 100,,> 100,> 100,> 100,> 100,> 100,> 100,,> 100,> 100,> 100,,> 100,
CC(C)(C)c1cc([Si](C)(C)C)c(C#N)c([Si](C)(C)C)c1,> 100,> 100,> 100,> 100,> 100,> 100,> 100,> 100,,85.5,,,,,,,,,,
COc1ccc2c(c1)C(=O)CC(C(N)=O)C2 (stereo not given),> 100,> 100,,> 100,> 100,,> 100,> 100,> 100,> 100,,,,,,,,,,
Cc1cc(C2CC(O)C(CO)O2)c(Br)cc1Br (stereo not given),> 100,> 100,> 100,> 100,> 100,> 100,> 100,> 100,> 100,,> 100,> 100,,> 100,> 100,> 100,> 100,> 100,99.1,36.7
O=C(O)[C@@H](Cc1ccccc1)NS(=O)(=O)c1ccc(-c2ccccc2)cc1,> 100,> 100,> 100,> 100,> 100,> 100,,> 100,> 100,,> 100,> 100,,> 100,> 100,> 100,> 100,,> 100,59.6
CCn1c(C)nc([N+](=O)[O-])c1Sc1ncc[nH]1,> 100,> 100,> 100,,> 100,> 100,,> 100,,> 100,,,,,,,,,,
